Measured values as given in PMC2759397 (Bioorganic & medicinal chemistry, 2009).

What was measured:
μ opioid receptors [1] = biological target: T1, μ opioid receptors (Cavia porcellus, UniProt A0ACM8Q262); design: species or system guinea pig; conditions: read-out: Agonist activity (% inhibition of contraction at 1 µM), GPI/LMMP
μ opioid receptors [2] = biological target: T1, μ opioid receptors; design: species or system guinea pig
δ opioid receptors = δ opioid receptors (Mus musculus, UniProt P32300); conditions: read-out: Agonist activity (% inhibition of contraction at 1 µM), MVD
Chain of δ opioid receptors (P32300 whole entry): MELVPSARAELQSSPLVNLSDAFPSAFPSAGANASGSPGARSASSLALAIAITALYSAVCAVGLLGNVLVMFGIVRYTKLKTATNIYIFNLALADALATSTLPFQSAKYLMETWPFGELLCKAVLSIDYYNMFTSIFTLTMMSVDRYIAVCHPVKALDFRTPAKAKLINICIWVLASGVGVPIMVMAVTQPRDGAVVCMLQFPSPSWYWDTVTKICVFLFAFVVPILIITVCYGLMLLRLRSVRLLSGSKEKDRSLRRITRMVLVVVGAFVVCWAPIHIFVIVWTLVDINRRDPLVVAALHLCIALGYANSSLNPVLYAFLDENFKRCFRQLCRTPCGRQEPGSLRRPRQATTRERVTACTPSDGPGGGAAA

delta opioid receptors = delta opioid receptors (Mus musculus, UniProt P32300)
Chain of delta opioid receptors (P32300 whole entry): as above

opioid receptors = experiment: Radioligand competition assay, [3H]diprenorphine, rat brain membranes; assay type: binding; conditions: data not shown

T1 sequence (A0ACM8Q262 1-400): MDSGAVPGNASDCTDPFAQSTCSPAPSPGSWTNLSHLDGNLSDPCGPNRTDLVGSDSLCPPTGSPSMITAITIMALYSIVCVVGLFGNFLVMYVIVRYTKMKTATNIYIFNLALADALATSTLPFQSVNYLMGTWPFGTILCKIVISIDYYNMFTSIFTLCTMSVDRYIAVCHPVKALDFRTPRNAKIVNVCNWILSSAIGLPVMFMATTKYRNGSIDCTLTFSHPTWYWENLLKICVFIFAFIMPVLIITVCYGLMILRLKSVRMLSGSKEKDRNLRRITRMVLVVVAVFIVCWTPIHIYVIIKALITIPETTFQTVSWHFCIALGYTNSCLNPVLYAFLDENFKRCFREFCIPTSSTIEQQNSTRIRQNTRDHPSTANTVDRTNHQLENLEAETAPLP

Row | SMILES | inhibition at 1 µM (μ opioid receptors [1]) [%] | PL-017 Antagonism at 1 µM in the GPI/LMMP (μ opioid receptors [2]) | inhibition at 1 µM (δ opioid receptors) [%] | DPDPE Antagonism at 1 µM in the MVD (delta opioid receptors) | inhibition constants against binding of [3H]diprenorphine (opioid receptors)
1 | COc1ccc2c(c1)c(CC(=O)O)c(C)n2C1CCN(C)CC1 [Compound 9d, [5-methoxy-2-methyl-1-(1-methyl-piperidin-4-yl)-1H-indol-3-yl]-acetic acid] | 0 | none at 1 µM | 2.8 | none at 1 µM | –
2 | Cc1c(CC(=O)O)c2ccccc2n1C1CCN(C)CC1 [Compound 9a, [2-methyl-1-(1-methyl-piperidin-4-yl)-1H-indol-3-yl]-acetic acid] | 0.7 | none at 1 µM | 17.9 | none at 1 µM | –
3 | Cc1c(CC(=O)O)c2ccccc2n1C1CCN(CCc2ccccc2)CC1 [Compound 9c, [2-methyl-1-(1-phenethyl-piperidin-4-yl)-1H-indol-3-yl]-acetic acid] | 3.1 | none at 1 µM | 19.5 | none at 1 µM | micromolar range
4 | COc1ccc2c(c1)c(CC(=O)O)c(C)n2C1CCN(CCc2ccccc2)CC1 [Compound 9f, [5-methoxy-2-methyl-1-(1-phenethyl-piperidin-4-yl)-1H-indol-3-yl]-acetic acid] | 6 | none at 1 µM | 0 | none at 1 µM | micromolar range
